Measurements published in ChEMBL document CHEMBL4145553, “Design, synthesis, and biological evaluation of novel amide and hydrazide based thioether analogs targeting Histone deacteylase (HDAC) enzymes” (Eur J Med Chem, 2018).
Activity calls are given as the source filed them. No cut-off for these calls is given here.

Experiments:
[1] = system: HL-60(TB); experiment: Growth inhibition of human HL-60(TB) cells assessed as cell growth at 10^-8 M incubated for 48 hrs by sulforhodamine B assay relative to control; format: functional; settings: HL-60, 48 h, read-out: Activity
[2] = system: Malme-3M; experiment: Growth inhibition of human MALME-3M cells assessed as cell growth at 10^-8 M incubated for 48 hrs by sulforhodamine B assay relative to control; format: functional; settings: read-out: Activity
[3] = system: IGROV-1; experiment: Growth inhibition of human IGROV1 cells assessed as cell growth at 10^-8 M incubated for 48 hrs by sulforhodamine B assay relative to control; format: functional; settings: IGROV-1, 48 h, read-out: Activity
[4] = system: EKVX; experiment: Growth inhibition of human EKVX cells assessed as cell growth at 10^-7 M incubated for 48 hrs by sulforhodamine B assay relative to control; format: functional; settings: read-out: Activity
[5] = system: SF-539; experiment: Growth inhibition of human SF539 cells assessed as cell growth at 10^-7 M incubated for 48 hrs by sulforhodamine B assay relative to control; format: functional; settings: SF-539, 48 h, read-out: Activity
[6] = system: SNB-75; experiment: Growth inhibition of human SNB75 cells assessed as cell growth at 10^-7 M incubated for 48 hrs by sulforhodamine B assay relative to control; format: functional; settings: SNB-75, 48 h, read-out: Activity
[7] = system: U-251; experiment: Growth inhibition of human U251 cells assessed as cell growth at 10^-7 M incubated for 48 hrs by sulforhodamine B assay relative to control; format: functional; settings: U-251, 48 h, read-out: Activity
[8] = system: OVCAR-3; experiment: Growth inhibition of human OVCAR3 cells assessed as cell growth at 10^-7 M incubated for 48 hrs by sulforhodamine B assay relative to control; format: functional; settings: OVCAR-3, 48 h, read-out: Activity
[9] = system: OVCAR-4; experiment: Growth inhibition of human OVCAR4 cells assessed as cell growth at 10^-7 M incubated for 48 hrs by sulforhodamine B assay relative to control; format: functional; settings: OVCAR-4, 48 h, read-out: Activity
[10] = system: SN12C; experiment: Growth inhibition of human SN12C cells assessed as cell growth at 10^-7 M incubated for 48 hrs by sulforhodamine B assay relative to control; format: functional; settings: read-out: Activity
[11] = system: LOX IMVI; experiment: Growth inhibition of human LOXIMVI cells assessed as cell growth at 10^-6 M incubated for 48 hrs by sulforhodamine B assay relative to control; format: functional; settings: read-out: Activity
[12] = system: MDA-MB-435; experiment: Growth inhibition of human MDA-MB-435 cells assessed as cell growth at 10^-6 M incubated for 48 hrs by sulforhodamine B assay relative to control; format: functional; settings: MDA-MB-435, 48 h, read-out: Activity
[13] = system: OVCAR-5; experiment: Growth inhibition of human OVCAR5 cells assessed as cell growth at 10^-6 M incubated for 48 hrs by sulforhodamine B assay relative to control; format: functional; settings: OVCAR-5, 48 h, read-out: Activity
[14] = system: TK-10; experiment: Growth inhibition of human TK10 cells assessed as cell growth at 10^-6 M incubated for 48 hrs by sulforhodamine B assay relative to control; format: functional; settings: TK-10, 48 h, read-out: Activity
[15] = system: T47D; experiment: Growth inhibition of human T47D cells assessed as cell growth at 10^-6 M incubated for 48 hrs by sulforhodamine B assay relative to control; format: functional; settings: read-out: Activity
[16] = system: K562; experiment: Growth inhibition of human K562 cells assessed as cell growth at 10^-5 M incubated for 48 hrs by sulforhodamine B assay relative to control; format: functional; settings: K562, 48 h, read-out: Activity
[17] = system: RPMI-8226; experiment: Growth inhibition of human RPMI8226 cells assessed as cell growth at 10^-5 M incubated for 48 hrs by sulforhodamine B assay relative to control; format: functional; settings: RPMI-8226, 48 h, read-out: Activity
[18] = system: SR; experiment: Growth inhibition of human SR cells assessed as cell growth at 10^-5 M incubated for 48 hrs by sulforhodamine B assay relative to control; format: functional; settings: read-out: Activity
[19] = system: SW-620; experiment: Growth inhibition of human SW620 cells assessed as cell growth at 10^-5 M incubated for 48 hrs by sulforhodamine B assay relative to control; format: functional; settings: SW-620, 48 h, read-out: Activity
[20] = system: SF-295; experiment: Growth inhibition of human SF295 cells assessed as cell growth at 10^-5 M incubated for 48 hrs by sulforhodamine B assay relative to control; format: functional; settings: SF-295, 48 h, read-out: Activity
[21] = system: DU-145; experiment: Growth inhibition of human DU145 cells assessed as cell growth at 10^-5 M incubated for 48 hrs by sulforhodamine B assay relative to control; format: functional; settings: DU-145, 48 h, read-out: Activity
[22] = system: NCI-H322M; experiment: Growth inhibition of human NCI-H322M cells assessed as cell growth at 10^-4 M incubated for 48 hrs by sulforhodamine B assay relative to control; format: functional; settings: read-out: Activity
[23] = system: HCT-15; experiment: Growth inhibition of human HCT15 cells assessed as cell growth at 10^-4 M incubated for 48 hrs by sulforhodamine B assay relative to control; format: functional; settings: HCT-15, 48 h, read-out: Activity
[24] = system: U-251; experiment: Growth inhibition of human U251 cells assessed as cell growth at 10^-4 M incubated for 48 hrs by sulforhodamine B assay relative to control; format: functional; settings: U-251, 48 h, read-out: Activity
[25] = system: CAKI-1; experiment: Growth inhibition of human Caki1 cells assessed as cell growth at 10^-4 M incubated for 48 hrs by sulforhodamine B assay relative to control; format: functional; settings: CAKI-1, 48 h, read-out: Activity
[26] = system: NCI-H23; experiment: Growth inhibition of human NCI-H23 cells incubated for 48 hrs by sulforhodamine B assay; format: functional; settings: NCI-H23, 48 h
[27] = system: SF-268; experiment: Growth inhibition of human SF268 cells incubated for 48 hrs by sulforhodamine B assay; format: functional; settings: SF-268, 48 h
[28] = system: M14; experiment: Growth inhibition of human M14 cells incubated for 48 hrs by sulforhodamine B assay; format: functional; settings: M14, 48 h
[29] = system: 786-0; experiment: Growth inhibition of human 786-0 cells incubated for 48 hrs by sulforhodamine B assay; format: functional; settings: 786-0, 48 h
[30] = system: MDA-MB-435; experiment: Cell cycle arrest in human MDA-MB-435 cells assessed as accumulation at S-phase by propidium iodide staining based flow cytometry (reference value: 26.46%); format: functional
[31] = system: MDA-MB-435; experiment: Induction of apoptosis in human MDA-MB-435 cells assessed as increase in gammaH2ax expression by qRT-PCR method; format: functional, cell-based
[32] = system: MDA-MB-435; experiment: Downregulation of HDAC8 mRNA expression in human MDA-MB-435 cells by qRT-PCR method; format: functional, cell-based
[33] = read-out: LC50 (the source's name)
[34] = read-out: pLC50 (the source's name) (converted)

`CCS/C(Nc1ccccc1)=C(\C#N)C(=O)Nc1ccc(OC)cc1` showed a growth at 0.01 µM [1] of 96%, a growth at 0.01 µM [2] of 98% and a growth at 0.01 µM [3] of 103%. The growth at 0.1 µM [4] was 81%, the growth at 0.1 µM [5] was 92% and the growth at 0.1 µM [6] was 84%. It also gave a growth at 0.1 µM [7] of 98%, a growth at 0.1 µM [8] of 97% and a growth at 0.1 µM [9] of 88%. It also gave a growth at 0.1 µM [10] of 97%, a growth at 1 µM [11] of 89% and a growth at 1 µM [12] of 19%. The growth at 1 µM [13] was 98%, the growth at 1 µM [14] was 97% and the growth at 1 µM [15] was 88%. For the same compound, the growth at 10 µM [16] was 12%, the growth at 10 µM [17] was 6% and the growth at 10 µM [18] was 21%. It also gave a growth at 10 µM [19] of 21%, a growth at 10 µM [20] of 16% and a growth at 10 µM [21] of 13%. It also gave a growth at 100 µM [22] of 37%, a growth at 100 µM [23] of 4% and a growth at 100 µM [24] of 6%. For the same compound, the growth at 100 µM [25] was 18%, the GI50 ([26]; read-out: GI50) was 4.9 µM and the LC50 ([26]; read-out: LC50) was > 100 µM. For the same compound, the TGI ([26]; read-out: TGI) was > 100 µM, the GI50 ([26]; read-out: pGI50 (converted)) was 4.9 µM and the LC50 ([26]; read-out: pLC50 (converted)) was > 100 µM. For the same compound, the TGI ([26]; read-out: pTGI) was > 100 µM, the GI50 ([27]; read-out: GI50) was 6.8 µM and the CC50 [27, 33] was > 100 µM. For the same compound, the TGI ([27]; read-out: TGI) was > 100 µM, the GI50 ([27]; read-out: pGI50 (converted)) was 6.76 µM and the CC50 [27, 34] was > 100 µM. The TGI ([27]; read-out: pTGI) was > 100 µM, the GI50 ([28]; read-out: GI50) was 2.27 µM and the CC50 [28, 33] was > 100 µM. The TGI ([28]; read-out: TGI) was 87.4 µM, the GI50 ([28]; read-out: pGI50 (converted)) was 2.29 µM and the CC50 [28, 34] was > 100 µM. For the same compound, the TGI ([28]; read-out: pTGI (converted)) was 87.1 µM, the GI50 ([29]; read-out: GI50) was 4.14 µM and the CC50 [29, 33] was > 100 µM. The TGI ([29]; read-out: TGI) was > 100 µM, the GI50 ([29]; read-out: pGI50 (converted)) was 4.17 µM and the CC50 [29, 34] was > 100 µM. For the same compound, the TGI ([29]; read-out: pTGI) was > 100 µM, the Activity [30] was 19.26% and the Activity [31] was “Active”. The Activity [32] was “Active”.
For `CCS/C(Nc1ccccc1)=C(\C#N)C(=O)N/N=C\c1ccc(Cl)cc1Cl`, the growth at 0.01 µM [1] was 97%, the growth at 0.01 µM [2] was 103% and the growth at 0.01 µM [3] was 106%. For the same compound, the growth at 0.1 µM [4] was 88%, the growth at 0.1 µM [5] was 94% and the growth at 0.1 µM [6] was 78%. The growth at 0.1 µM [7] was 98%, the growth at 0.1 µM [8] was 97% and the growth at 0.1 µM [9] was 89%. For the same compound, the growth at 0.1 µM [10] was 92%, the growth at 1 µM [11] was 86% and the growth at 1 µM [12] was 28%. It also gave a growth at 1 µM [13] of 101%, a growth at 1 µM [14] of 97% and a growth at 1 µM [15] of 89%. For the same compound, the growth at 10 µM [16] was 10%, the growth at 10 µM [17] was 18% and the growth at 10 µM [18] was 28%. For the same compound, the growth at 10 µM [19] was 31%, the growth at 10 µM [20] was 15% and the growth at 10 µM [21] was 12%. For the same compound, the growth at 100 µM [22] was 32%, the growth at 100 µM [23] was 11% and the growth at 100 µM [24] was 12%. For the same compound, the growth at 100 µM [25] was 13%, the GI50 ([26]; read-out: GI50) was 6.47 µM and the LC50 ([26]; read-out: LC50) was > 100 µM. For the same compound, the TGI ([26]; read-out: TGI) was > 100 µM, the GI50 ([26]; read-out: pGI50 (converted)) was 6.46 µM and the LC50 ([26]; read-out: pLC50 (converted)) was > 100 µM. For the same compound, the TGI ([26]; read-out: pTGI) was > 100 µM, the GI50 ([27]; read-out: GI50) was 6.58 µM and the CC50 [27, 33] was > 100 µM. For the same compound, the TGI ([27]; read-out: TGI) was > 100 µM, the GI50 ([27]; read-out: pGI50 (converted)) was 6.61 µM and the CC50 [27, 34] was > 100 µM. The TGI ([27]; read-out: pTGI) was > 100 µM, the GI50 ([28]; read-out: GI50) was 2.01 µM and the CC50 [28, 33] was > 100 µM. The TGI ([28]; read-out: TGI) was 9.61 µM, the GI50 ([28]; read-out: pGI50 (converted)) was 2 µM and the CC50 [28, 34] was > 100 µM. The TGI ([28]; read-out: pTGI (converted)) was 9.55 µM, the GI50 ([29]; read-out: GI50) was 3.5 µM and the CC50 [29, 33] was > 100 µM. For the same compound, the TGI ([29]; read-out: TGI) was > 100 µM, the GI50 ([29]; read-out: pGI50 (converted)) was 3.47 µM and the CC50 [29, 34] was > 100 µM. The TGI ([29]; read-out: pTGI) was > 100 µM, the Activity [30] was 19.16% and the Activity [31] was “Active”. For the same compound, the Activity [32] was “Active”.
